Source: patent US20250213579A1, “COMBINATION THERAPIES” (MIRATI THERAPEUTICS, INC., priority 2018, published 2025)
Like-named read-outs stand apart in the source and are kept apart here.

Tested on: H2122 cells
Settings: H2122 tumors, nude/nude mice, Compound 478 100 mg/kg and/or Dasatinib 50 mg/kg p.o. daily
Procedure: Immunocompromised nude/nude mice were inoculated in the right hind flank with cells or patient derived tumor samples harboring a KRas G12C mutation. When tumor volumes reached between 200-400 mm^3 in size, the mice were divided into four groups of 5-12 mice each. The first group was administered vehicle only. […] The fourth group was administered the single agent dose of the KRas G12C inhibitor in combination with the single agent dose of the Src-family kinase inhibitor. […] Tumor volumes were measured using a caliper every two-three days and tumor volumes were calculated by the formula: 0.5×(Length×Width)^2.
Tumor volumes were measured at pre-specified days set forth below.

SMILES: Cc1nc(Nc2ncc(C(=O)Nc3c(C)cccc3Cl)s2)cc(N2CCN(CCO)CC2)n1 [Dasatinib, N-(2-chloro-6-methylphenyl)-2-((6-(4-(2-hydroxyethyl)piperazin-1-yl)-2-methylpyrimidin-4-yl)amino)thiazole-5-carboxamide]
- Average Tumor Volumes (Day 11 from inoculation (start of dosing)): 324 mm^3
- Average Tumor Volumes (Day 13 from inoculation): 492 mm^3
- Average Tumor Volumes (Day 15 from inoculation): 596 mm^3
- Average Tumor Volumes (Day 18 from inoculation): 820 mm^3
- tumor growth inhibition (Day 20 (Treatment Day 9)): 23.5%
- Average Tumor Volumes (Day 20 from inoculation): 938 mm^3
- Average Tumor Volumes (Day 22 from inoculation): 1086 mm^3
- Average Tumor Volumes (Day 25 from inoculation): 1216 mm^3
